Test results from US6869913B1, “Pyridazin-3-one derivatives, their use and intermediates for their production” (Sumitomo Chemical Company, Limited, priority 1995, dated 2005).

How the values were obtained:
Assay type in all cases: in vivo
[1] = tested on: barnyardgrass (Echinochloa oryzicola); test: Test Example 4: flooding treatment on paddy fields; conditions: application amount of active ingredient 250 g/ha, examined 19 days after application, index 0 to 5
Method: Cylindrical plastic pots of 9 cm in diameter and 11 cm in depth were filled with soil, in which the seeds of barnyardgrass (Echinochloa oryzicola) were sowed. These pots were flooded to form a paddy field, and the test plants were grown in a greenhouse for 7 days. Each of the test compounds listed below was formulated into an emulsifiable concentrate according to Formulation Example 2, which was diluted with water to a prescribed concentration. The dilution was applied to the water surface in the pots at a volume of 50 liters per hectare. After the application, the test plants were grown in the greenhouse for 19 days, and the herbicidal activity was examined.

[2] = tested on: entireleaf morningglory (Ipomoea hederacea var. integriuscula); test: Test Example 1: foliar treatment on upland fields; conditions: 500 g/ha active ingredient; foliar spray; examined 19 days after application
Method: (§1) Cylindrical plastic pots of 10 cm in diameter and 10 cm in depth were filled with soil, in which the seeds of […] (Ipomoea hederacea var. integriuscula) and velvetleaf (Abutilon theophrash) were sowed, and the test plants were grown in a greenhouse for 19 days. Each of the test compounds listed below was formulated into an emulsifiable concentrate according to Formulation Example 2, which was diluted with water containing a spreading agent to a prescribed concentration. The dilution was uniformly sprayed over the foliage of the test plants with a sprayer at a volume of 1000 liters per hectare. After the application, the test plants were grown in the greenhouse for 19 days, and the herbicidal activity was examined.

[3] = tested on: velvetleaf (Abutilon theophrash); test: Test Example 1: foliar treatment on upland fields; conditions: 500 g/ha active ingredient; foliar spray; examined 19 days after application
Method: as §1

[4] = tested on: entireleaf morningglory (Ipomoea hederacea var. integriuscula); test: Test Example 3: soil surface treatment on upland fields; conditions: 500 g/ha active ingredient; soil surface spray; examined after 19 days
Method: (§2) Cylindrical plastic pots of 10 cm in diameter and […] in depth were filled with soil, in which the seeds of […] (Ipomoea hederacea var. integriuscula) and velvetleaf (Abutilon theophrash) were sowed. Each of the test compounds listed below was formulated into an emulsifiable concentrate according to Formulation Example 2, which was diluted with water to a prescribed concentration. The dilution was uniformly sprayed over the soil surface in the pots with a sprayer at a volume of 1000 liters per hectare. After the application, the test plants were grown in a greenhouse for 19 days, and the herbicidal activity was examined.

[5] = tested on: velvetleaf (Abutilon theophrash); test: as above; conditions: 500 g/ha active ingredient; soil surface spray; examined after 19 days
Method: as §2

[6] = tested on: barnyardgrass (Echinochloa crus-galli); test: Test Example 2: foliar treatment on upland fields; design: key: rating; 4–5 = excellent activity, 3 or lower = insufficient; conditions: 32 g/ha active ingredient; foliar spray; examined 19 days after application
Source text: (§3) The herbicidal activity is excellent when rated at “4” or “5” but insufficient when rated at “3” or lower. The phytotoxicity is no problematic on practical use when rated at “0” or “1” but not allowed when rated at “2” or higher.
(§4) Cylindrical plastic pots of 10 cm in diameter and 10 cm in depth were filled with soil, in which the seeds of barnyardgrass (Echinochloa crus-galli), entireleaf morningglory (Ipomoea hederacea var. integriuscula) and velvetleaf (Abutilon theophrash) were sowed, and the test plants were grown in a greenhouse for 19 days. Each of the test compounds listed below was formulated into an emulsifiable concentrate according to Formulation Example 2, which was diluted with water containing a spreading agent to a prescribed concentration. The dilution was uniformly sprayed over the foliage of the test plants with a sprayer at a volume of 1000 liters per hectare. After the application, the test plants were grown in the greenhouse for 19 days, and the herbicidal activity was examined.

[7] = tested on: entireleaf morningglory (Ipomoea hederacea var. integriuscula); test: Test Example 2: foliar treatment on upland fields; design: key: rating; 4–5 = excellent activity, 3 or lower = insufficient; conditions: 32 g/ha active ingredient; foliar spray; examined 19 days after application
Source text: as §3, §4

[8] = tested on: velvetleaf (Abutilon theophrash); test: Test Example 2: foliar treatment on upland fields; design: key: rating; 4–5 = excellent activity, 3 or lower = insufficient; conditions: 32 g/ha active ingredient; foliar spray; examined 19 days after application
Source text: as §3, §4

O=c1cc(C(F)(F)F)cnn1-c1ccc(Cl)cc1 [Compound 1-332, 2-(4-chlorophenyl)-5-trifluoromethylpyridazin-3-one]
5: Herbicidal activity Barnyardgrass [1] | Herbicidal activity Entireleaf morningglory [2] | Herbicidal activity Velvetleaf [3] | Herbicidal activity Entireleaf morningglory [4] | Herbicidal activity Velvetleaf [5]

Cc1c(C(F)(F)F)cnn(-c2cc(NS(C)(=O)=O)c(Cl)cc2F)c1=O [Compound 1-367, N-[2-chloro-4-fluoro-5-(4-methyl-5-trifluoromethyl-3-pyridazinon-2-yl)phenyl]methanesulfonamide]
5: Herbicidal activity Barnyardgrass [1] | Herbicidal activity Entireleaf morningglory [2] | Herbicidal activity Velvetleaf [3] | Herbicidal activity Entireleaf morningglory [4] | Herbicidal activity Velvetleaf [5]

Cc1c(C(F)(F)F)cnn(-c2cc(NS(=O)(=O)CCl)c(Cl)cc2F)c1=O [Compound 1-369, N-{2-chloro-4-fluoro-5-(4-methyl-5-trifluoromethyl-3-pyridazinon-2-yl)phenyl}chloromethanesulfonamide]
5: Herbicidal activity Barnyardgrass [1] | Herbicidal activity Entireleaf morningglory [2] | Herbicidal activity Velvetleaf [3] | Herbicidal activity Entireleaf morningglory [4] | Herbicidal activity Velvetleaf [5] | Herbicidal activity Barnyardgrass [6] | Herbicidal activity Entireleaf morningglory [7] | Herbicidal activity Velvetleaf [8]

Cc1c(C(F)(F)F)cnn(-c2cc(O)c(Cl)cc2F)c1=O [Compound 1-391, 2-[2-fluoro-4-chloro-5-hydroxyphenyl]4-methyl-5-trifluoromethylpyridazin-3-one]
5: Herbicidal activity Barnyardgrass [1] | Herbicidal activity Entireleaf morningglory [2] | Herbicidal activity Velvetleaf [3] | Herbicidal activity Entireleaf morningglory [4] | Herbicidal activity Velvetleaf [5]

CCOC(=O)C(C)Nc1cc(-n2ncc(C(F)(F)F)c(C)c2=O)c(F)cc1Cl (centres unmarked) [Compound 1-420, Ethyl 2-{2-chloro-4-fluoro-5-(4-methyl-5-trifluoromethyl-3-pyridazinon-2-yl)phenylamino}propionate]
5: Herbicidal activity Barnyardgrass [1] | Herbicidal activity Entireleaf morningglory [2] | Herbicidal activity Velvetleaf [3] | Herbicidal activity Entireleaf morningglory [4] | Herbicidal activity Velvetleaf [5] | Herbicidal activity Barnyardgrass [6] | Herbicidal activity Entireleaf morningglory [7] | Herbicidal activity Velvetleaf [8]

Cc1c(C(F)(F)F)cnn(-c2cc(OC(C)C)c(Cl)cc2F)c1=O [Compound 1-476, 2-[2-fluoro-4-chloro-5-isopropoxyphenyl]4-methyl-5-trifluoromethylpyridazin-3-one]
5: Herbicidal activity Barnyardgrass [1] | Herbicidal activity Entireleaf morningglory [2] | Herbicidal activity Velvetleaf [3] | Herbicidal activity Entireleaf morningglory [4] | Herbicidal activity Velvetleaf [5]

COC(=O)C(C)Sc1cc(-n2ncc(C(F)(F)F)cc2=O)c(F)cc1Cl (centres unmarked) [Compound 1-1221, Methyl 2-{2-chloro-4-fluoro-5-(5-trifluoromethyl-3-pyridazinon-2-yl)phenylthio}propionate]
5: Herbicidal activity Barnyardgrass [1] | Herbicidal activity Entireleaf morningglory [2] | Herbicidal activity Velvetleaf [3] | Herbicidal activity Entireleaf morningglory [4] | Herbicidal activity Velvetleaf [5] | Herbicidal activity Barnyardgrass [6] | Herbicidal activity Entireleaf morningglory [7] | Herbicidal activity Velvetleaf [8]

CCOC(=O)C(C)Sc1cc(-n2ncc(C(F)(F)F)cc2=O)c(F)cc1Cl (centres unmarked) [Compound 1-1222, Ethyl 2-{2-chloro-4-fluoro-5-(5-trifluoromethyl-3-pyridazinon-2-yl)phenylthio}propionate]
5: Herbicidal activity Barnyardgrass [1] | Herbicidal activity Entireleaf morningglory [2] | Herbicidal activity Velvetleaf [3] | Herbicidal activity Entireleaf morningglory [4] | Herbicidal activity Velvetleaf [5] | Herbicidal activity Barnyardgrass [6] | Herbicidal activity Entireleaf morningglory [7] | Herbicidal activity Velvetleaf [8]

Cc1c(C(F)(F)F)cnn(-c2cc(OC(C)C)c(Br)cc2F)c1=O [Compound 1-1783, 2-(4-bromo-2-fluoro-5-isopropyloxyphenyl)-4-methyl-5-trifluoromethylpyridazin-3-one]
5: Herbicidal activity Barnyardgrass [1] | Herbicidal activity Entireleaf morningglory [2] | Herbicidal activity Velvetleaf [3] | Herbicidal activity Entireleaf morningglory [4] | Herbicidal activity Velvetleaf [5] | Herbicidal activity Barnyardgrass [6] | Herbicidal activity Entireleaf morningglory [7] | Herbicidal activity Velvetleaf [8]

C#CCN1C(=O)COc2cc(F)c(-n3ncc(C(F)(F)F)c(C)c3=O)cc21 [Compound 2-251, 7-Fluoro-6-(4-methyl-5-trifluoromethyl-3-pyridazinon-2-yl)-4-propargyl-2H-1,4-benzoxazin-3-one]
5: Herbicidal activity Barnyardgrass [1] | Herbicidal activity Entireleaf morningglory [2] | Herbicidal activity Velvetleaf [3] | Herbicidal activity Entireleaf morningglory [4] | Herbicidal activity Velvetleaf [5] | Herbicidal activity Barnyardgrass [6] | Herbicidal activity Entireleaf morningglory [7] | Herbicidal activity Velvetleaf [8]

CCC(C)n1c(=O)sc2cc(F)c(-n3ncc(C(F)(F)F)c(C)c3=O)cc21 (centres unmarked) [Compound 2-328]
5: Herbicidal activity Barnyardgrass [1] | Herbicidal activity Entireleaf morningglory [2] | Herbicidal activity Velvetleaf [3] | Herbicidal activity Entireleaf morningglory [4] | Herbicidal activity Velvetleaf [5]

C#CCN1C(=O)COc2cc(F)c(-n3nc(C)c(C(F)(F)F)cc3=O)cc21 [Compound 2-821, 7-fluoro-6-(6-methyl-5-trifluoromethyl-3-pyridazinon-2-yl)-4-propargyl-2H-1,4-benzoxazin-3-one]
5: Herbicidal activity Barnyardgrass [1] | Herbicidal activity Entireleaf morningglory [2] | Herbicidal activity Velvetleaf [3] | Herbicidal activity Entireleaf morningglory [4] | Herbicidal activity Velvetleaf [5] | Herbicidal activity Barnyardgrass [6] | Herbicidal activity Entireleaf morningglory [7] | Herbicidal activity Velvetleaf [8]

Cc1cc2c(-n3ncc(C(F)(F)F)c(C)c3=O)c(F)cc(Cl)c2o1 [Compound 3-139]
5: Herbicidal activity Barnyardgrass [1] | Herbicidal activity Entireleaf morningglory [2] | Herbicidal activity Velvetleaf [3]

COC(=O)C1(C)Cc2c(c(Cl)cc(F)c2-n2ncc(C(F)(F)F)c(C)c2=O)O1 (centres unmarked) [Compound 4-434]
5: Herbicidal activity Barnyardgrass [1] | Herbicidal activity Entireleaf morningglory [2] | Herbicidal activity Velvetleaf [3] | Herbicidal activity Entireleaf morningglory [4] | Herbicidal activity Velvetleaf [5] | Herbicidal activity Barnyardgrass [6] | Herbicidal activity Entireleaf morningglory [7] | Herbicidal activity Velvetleaf [8]

Cc1c(C(F)(F)F)cnn(-c2c(F)cc(Cl)c3c2CC(C)(C)O3)c1=O [Compound 4-451]
5: Herbicidal activity Barnyardgrass [1] | Herbicidal activity Entireleaf morningglory [2] | Herbicidal activity Velvetleaf [3]
